Data: ChEMBL document CHEMBL3880383, “2-oxo-1-pyrrolidine derivative and its pharmaceutical uses” (2004)
pKi: −log10 of the molar value.

Legend:
Mus musculus = test: Anticonvulsant activity in ip dosed sound susceptible DBA mouse model assessed as protection against audiogenic seizure-induced wild running, clonic and tonic convulsion administered 60 mins prior to induction of audiogenic seizures measured for 30 secs; format: functional
[1] = target: Synaptic vesicle glycoprotein 2A (Rattus norvegicus, UniProt Q02563); test: Displacement of [3H]-2-[4-(3-azidophenyl)-2-oxo-1-pyrrolidinyl]butanamide from SV2A levetiracetam binding site in Sprague-Dawley rat cerebral cortex membranes after 120 mins by liquid scintillation counting method; design: species or system Membrane
[2] = Mus musculus, DBA, ip, read-out: ED50

Chain of Synaptic vesicle glycoprotein 2A (Q02563 whole entry): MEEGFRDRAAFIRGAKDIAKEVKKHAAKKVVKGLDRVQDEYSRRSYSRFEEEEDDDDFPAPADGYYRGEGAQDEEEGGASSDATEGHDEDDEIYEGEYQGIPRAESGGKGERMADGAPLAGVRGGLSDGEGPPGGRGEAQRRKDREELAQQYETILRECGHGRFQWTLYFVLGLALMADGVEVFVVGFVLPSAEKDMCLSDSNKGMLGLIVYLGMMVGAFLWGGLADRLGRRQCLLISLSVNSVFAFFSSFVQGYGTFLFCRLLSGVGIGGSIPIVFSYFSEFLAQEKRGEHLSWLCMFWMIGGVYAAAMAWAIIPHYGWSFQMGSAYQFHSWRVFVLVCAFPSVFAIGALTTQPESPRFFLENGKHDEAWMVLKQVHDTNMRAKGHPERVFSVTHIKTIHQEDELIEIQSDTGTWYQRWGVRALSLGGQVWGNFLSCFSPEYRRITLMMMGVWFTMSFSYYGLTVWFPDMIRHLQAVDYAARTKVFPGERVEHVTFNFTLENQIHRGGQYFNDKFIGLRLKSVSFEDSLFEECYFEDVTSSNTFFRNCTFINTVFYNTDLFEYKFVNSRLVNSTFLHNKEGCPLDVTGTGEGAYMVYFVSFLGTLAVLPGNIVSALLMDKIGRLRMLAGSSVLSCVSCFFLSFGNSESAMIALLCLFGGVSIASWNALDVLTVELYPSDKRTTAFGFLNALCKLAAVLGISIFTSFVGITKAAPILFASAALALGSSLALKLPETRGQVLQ

Row | Structure (SMILES) | ED50 (Mus musculus; [2]) [µmol/kg] | pKi [1] | ED50 (Mus musculus) [µmol/kg]
1 | CC[C@@H](C(N)=O)N1CC(CC2CC2)CC1=O (stereo partly drawn) | 100 | ≥ 6.00 | –
2 | CCCC1(C)CC(=O)N([C@@H](CC)C(N)=O)C1 (stereo partly drawn) | 100 | ≥ 6.00 | –
3 | CCC[C@H]1CC(=O)N([C@@H](CC)C(N)=O)C1 | 100 | ≥ 6.00 | –
4 | CCCCCC1CC(=O)N(C(CC)C(N)=O)C1 (stereo not drawn) | – | ≥ 6.00 | –
5 | CCC1CC(=O)N([C@@H](CC)C(N)=O)C1 (stereo partly drawn) | 100 | ≥ 6.00 | –
6 | CC[C@@H](C(N)=O)N1C[C@H](CI)CC1=O | 100 | ≥ 6.00 | –
7 | CC[C@@H](C(N)=O)N1CC(CC(C)(C)C)CC1=O (stereo partly drawn) | – | ≥ 6.00 | –
8 | CCCCC1CC(=O)N(C(CC)C(N)=O)C1 (stereo not drawn) | 100 | ≥ 6.00 | –
9 | CCC(C(N)=O)N1CC(C=C(F)F)CC1=O (stereo not drawn) | 100 | ≥ 6.00 | –
10 | CC[C@@H](C(N)=O)N1CC(CN=C=S)CC1=O (stereo partly drawn) | – | ≥ 6.00 | –
11 | CC[C@@H](C(N)=O)N1CC(CCc2ccccc2)CC1=O (stereo partly drawn) | – | ≥ 6.00 | –
12 | CCC(C(N)=O)N1CC(c2ccco2)CC1=O (stereo not drawn) | 100 | ≥ 6.00 | –
13 | CC[C@@H](C(N)=O)N1CC(Cn2cnnn2)CC1=O (stereo partly drawn) | 100 | ≥ 6.00 | –
14 | CCC(C(N)=O)N1CC(c2cccnc2)CC1=O (stereo not drawn) | 100 | ≥ 6.00 | –
15 | CC[C@@H](C(N)=O)N1CC(n2cccc2)CC1=O (stereo partly drawn) | 100 | ≥ 6.00 | –
16 | CC[C@@H](C(N)=O)N1CC(c2cccc(N=[N+]=[N-])c2)CC1=O (stereo partly drawn) | 100 | ≥ 6.00 | –
17 | CCC(C(N)=O)N1CC(C=C(C)C)CC1=O (stereo not drawn) | 100 | ≥ 6.00 | –
18 | CC[C@@H](C(N)=O)N1CC(n2cccc2Br)CC1=O (stereo partly drawn) | 100 | ≥ 6.00 | –
19 | CC[C@@H](C(N)=O)N1CC(c2ccccc2)CC1=O (stereo partly drawn) | 100 | ≥ 6.00 | –
20 | CC[C@@H](C(N)=O)N1CC(CC(C)=O)CC1=O (stereo partly drawn) | 100 | ≥ 6.00 | –
21 | CC[C@@H](C(N)=O)N1C[C@@H](C=C(F)F)CC1=O | 100 | ≥ 6.00 | –

Row | Structure (SMILES) | ED50 (Mus musculus; [2]) [µmol/kg] | pKi [1] | ED50 (Mus musculus) [µmol/kg]
22 | C=CC1CC(=O)N(C(CC)C(N)=O)C1 (stereo not drawn) | 100 | ≥ 6.00 | –
23 | CCC(C(N)=O)N1CC(CI)CC1=O (stereo not drawn) | – | ≥ 6.00 | –
24 | CC[C@@H](C(N)=O)N1CC(C#CBr)CC1=O (stereo partly drawn) | 100 | ≥ 6.00 | –
25 | CCC(C(N)=O)N1C[C@H](CC(C)(F)F)CC1=O (stereo partly drawn) | 100 | ≥ 6.00 | –
26 | CC[C@@H](C(N)=O)N1CC(c2ccsc2)CC1=O (stereo partly drawn) | 100 | ≥ 6.00 | –
27 | CCC(C(N)=O)N1CC(CC2CC2)CC1=O (stereo not drawn) | 100 | ≥ 6.00 | –
28 | CCC(C(N)=O)N1CC(CC(C)C)CC1=O (stereo not drawn) | 100 | ≥ 6.00 | –
29 | CCC(C(N)=O)N1CC(c2ccc(Cl)cc2)CC1=O (stereo not drawn) | – | ≥ 6.00 | –
30 | CCC[C@@H](C(N)=O)N1C[C@H](CI)CC1=O | 100 | ≥ 6.00 | –
31 | CC[C@@H](C(N)=O)N1CC(CCC(F)(F)F)CC1=O (stereo partly drawn) | 100 | ≥ 6.00 | –
32 | CCCC1CC(=O)N(C(Cc2cscn2)C(N)=O)C1 (stereo not drawn) | – | ≥ 6.00 | –
33 | CCC(C(N)=O)N1CC(c2ccccc2F)CC1=O (stereo not drawn) | 100 | ≥ 6.00 | –
34 | CCC(C(N)=O)N1CC(c2ccc(Cl)c(Cl)c2)CC1=O (stereo not drawn) | 100 | ≥ 6.00 | –
35 | CCCC1CC(=O)N(C(CC)C(N)=O)C1 (stereo not drawn) | 100 | ≥ 6.00 | –
36 | C=C[C@@H]1CC(=O)N([C@@H](CC)C(N)=O)C1 | 100 | ≥ 6.00 | –
37 | CCC(C(N)=O)N1CC(c2cc(C(F)(F)F)cc(C(F)(F)F)c2)CC1=O (stereo not drawn) | – | ≥ 6.00 | –
38 | CCC(C(N)=O)N1CC(c2ccccc2Br)CC1=O (stereo not drawn) | 100 | ≥ 6.00 | –
39 | C#CC1CC(=O)N(C(CC)C(N)=O)C1 (stereo not drawn) | 100 | ≥ 6.00 | –
40 | C[C@@H](C(N)=O)N1C[C@H](CI)CC1=O | 100 | ≥ 6.00 | –
41 | CCC(C(N)=O)N1CC(c2cccc(C)c2)CC1=O (stereo not drawn) | 100 | ≥ 6.00 | –
42 | CCCC1CC(=O)N(C(C)C(N)=O)C1 (stereo not drawn) | – | ≥ 6.00 | –

Row | Structure (SMILES) | ED50 (Mus musculus; [2]) [µmol/kg] | pKi [1] | ED50 (Mus musculus) [µmol/kg]
43 | CCC(C(N)=O)N1CC(CS(=O)(=O)c2ccccc2)CC1=O (stereo not drawn) | – | ≥ 6.00 | –
44 | CC[C@@H](C(N)=O)N1C[C@@H](C=C(Br)Br)CC1=O | 100 | ≥ 6.00 | –
45 | CC[C@@H](C(N)=O)N1CC(CCl)CC1=O (stereo partly drawn) | 100 | ≥ 6.00 | –
46 | CCC(C(N)=O)N1CC(c2ccc(Cl)cc2Cl)CC1=O (stereo not drawn) | 100 | ≥ 6.00 | –
47 | CC[C@@H](C(N)=O)N1CC(COS(=O)(=O)c2ccc(C)cc2)CC1=O (stereo partly drawn) | 100 | ≥ 6.00 | –
48 | CC[C@@H](C(N)=O)N1CC(CC(C)I)CC1=O (stereo partly drawn) | 100 | ≥ 6.00 | –
49 | CC[C@@H](C(N)=O)N1CC(c2cc(Br)cc(Br)c2)CC1=O (stereo partly drawn) | 100 | ≥ 6.00 | –
50 | CC[C@@H](C(N)=O)N1CC(CI)CC1=O (stereo partly drawn) | 100 | ≥ 6.00 | –
51 | CC[C@@H](C(N)=O)N1CC(CBr)CC1=O (stereo partly drawn) | 100 | ≥ 6.00 | –
52 | C=CCC1CC(=O)N([C@@H](CC)C(N)=O)C1 (stereo partly drawn) | 100 | ≥ 6.00 | –
53 | CC[C@@H](C(N)=O)N1CC(CCCc2ccccc2)CC1=O (stereo partly drawn) | 100 | ≥ 6.00 | –
54 | CCC(C(N)=O)N1CC(C#CBr)CC1=O (stereo not drawn) | 100 | ≥ 6.00 | –
55 | CC[C@@H](C(N)=O)N1CC(c2ccc(N=[N+]=[N-])cc2)CC1=O (stereo partly drawn) | 100 | ≥ 6.00 | –
56 | CC[C@@H](C(N)=O)N1CC(c2cccc(OC)c2)CC1=O (stereo partly drawn) | – | ≥ 6.00 | –
57 | CC[C@@H](C(N)=O)N1CC(c2ccccc2OC)CC1=O (stereo partly drawn) | – | ≥ 6.00 | –
58 | CCC(C(N)=O)N1CC(C=C(Br)Br)CC1=O (stereo not drawn) | 100 | ≥ 6.00 | –
59 | CCC(C(N)=O)N1CC(c2cccc(Cl)c2)CC1=O (stereo not drawn) | 100 | ≥ 6.00 | –
60 | CC[C@@H](C(N)=O)N1CC(c2ccc(-c3ccccc3)cc2)CC1=O (stereo partly drawn) | – | ≥ 6.00 | –
61 | CC[C@@H](C(N)=O)N1CC(CO[N+](=O)[O-])CC1=O (stereo partly drawn) | 100 | ≥ 6.00 | –
62 | CCC(C(N)=O)N1CC(c2ccccc2C(F)(F)F)CC1=O (stereo not drawn) | – | ≥ 6.00 | –
63 | CC[C@@H](C(N)=O)N1CC(CSC)CC1=O (stereo partly drawn) | 100 | ≥ 6.00 | –

Row | Structure (SMILES) | ED50 (Mus musculus; [2]) [µmol/kg] | pKi [1] | ED50 (Mus musculus) [µmol/kg]
64 | CC[C@H](C(N)=O)N1CC(C=C(Cl)Cl)CC1=O (stereo partly drawn) | 100 | ≥ 6.00 | –
65 | CCC(C(N)=O)N1CC(/C=C\F)CC1=O (stereo not drawn) | 100 | ≥ 6.00 | –
66 | C=CCC(C(N)=O)N1CC(CCC)CC1=O (stereo not drawn) | – | ≥ 6.00 | –
67 | CCCC(CN[C@@H](CC)C(N)=O)CC(=O)OC(C)C (stereo partly drawn) | 100 | – | –
68 | CCC(C(N)=O)N1CC(c2nccs2)CC1=O (stereo not drawn) | 100 | ≥ 6.00 | –
69 | CCCCOC(=O)CC(CCC)CN[C@@H](CC)C(N)=O (stereo partly drawn) | 100 | – | –
70 | CCCC1CC(=O)N(C(CC2CC2)C(N)=O)C1 (stereo not drawn) | – | ≥ 6.00 | –
71 | CC[C@@H](C(=O)NC)N1C[C@H](CI)CC1=O | 100 | ≥ 6.00 | –
72 | CCCC1CC(=O)N(C(CCC)C(N)=O)C1 (stereo not drawn) | – | ≥ 6.00 | –
73 | CCCC(CN[C@@H](CC)C(N)=O)CC(=O)OCC (stereo partly drawn) | 100 | – | –
74 | C=C[C@H]1CC(=O)N([C@@H](CC)C(N)=O)C1 | 100 | ≥ 6.00 | –
75 | CCCC(CN[C@@H](CC)C(N)=O)CC(=O)OCCC12CC3CC(CC(C3)C1)C2 (stereo partly drawn) | 100 | – | –
76 | CC[C@@H](C(N)=O)N1CC(c2cccc(Br)c2)CC1=O (stereo partly drawn) | 100 | ≥ 6.00 | –
77 | CCC(C(N)=O)N1CC(CC(F)F)CC1=O (stereo not drawn) | – | ≥ 6.00 | –
78 | CC[C@@H](C(N)=O)N1C[C@H](C=C(Br)Br)CC1=O | 100 | ≥ 6.00 | –
79 | CC[C@@H](C(N)=O)N1C[C@H](CN=[N+]=[N-])CC1=O | 100 | ≥ 6.00 | –
80 | CC[C@@H](C(N)=O)N1CC(c2cccs2)CC1=O (single isomer, unassigned; diastereomer 1) | 100 | – | –
81 | CC[C@@H](C(N)=O)N1CC(c2cccs2)CC1=O (single isomer, unassigned; diastereomer 2) | – | ≥ 6.00 | 100
82 | CCC[C@@H]1CC(=O)N([C@@H](CC)C(N)=O)C1 [BRIVARACETAM] | 100 | ≥ 6.00 | –
83 | CC[C@@H](C(N)=O)N1C[C@H](C=C(F)F)CC1=O [SELETRACETAM] | 100 | ≥ 6.00 | –
